According to patent publication US20160011176A1, “METHOD AND DEVICE FOR EXAMINING MYOCARDIAL TOXICITY AND EVALUATING CARDIOMYOCYTES” (NATIONAL UNIVERSITY CORPORATION TOKYO MEDICAL AND DENTAL …, priority 2012, published 2016):

How the values were obtained:
cardiomyocyte network [1] = experiment: Excitation conduction transmitting through a linearly arranged cardiomyocyte network (transmission time, its fluctuation, FPD, STVFPD); format: cell-based
Source text: FIGS. 65a, b schematically show an example of a method of such measurement of excitation conduction transmitting through a cardiomyocyte network. […] Arranged on a bottom surface of each cell housing on a substrate surface are respective electrodes (about 8 μm in diameter) for measurements of cellular potential, and from each of the electrodes, respective lead lines are extended. A single cardiomyocyte is received in each of the cell housings.
Specifically, in order to measure the temporal variation in the excitation conduction transmitting through the cellular population, an ignition peak of depolarization excited by an initial excitation conduction of each cell or each local point is measured, and at the same time, an ignition peak of an initial depolarization based on excitation conduction in another local area of adjacent another cell or adjacent another cellular population is measured; then a variation of a transmission rate or a transmission elapsed time is measured with respect to the distance between the two measurement points; and then the level of fluctuation of the transmission is quantitatively measured. Generally, the initial peak based on the excitation conduction is deemed to be a sodium spike. Thus, in view of this, the measurements of the initial ignition peak based on the excitation conduction are equivalent to the measurements of the sodium spikes. For example, where a drug with a big risk of proarrhlythmia is used, an increase in the fluctuation is utilized for the measurements. Here, the following are required: (1) a network of a plurality of cardiomyocytes is formed; (2) there is a means for accurately measuring the transmission delay time by measuring respective cellular potential wave form at two or more spatially different points within the network, and simultaneously accurately measuring the time of depolarization ignition spikes excited by the initial excitation conduction of the wave form; (3) in the case where a forced pulsation is provided, three or more electrodes are used to measure time required for transmission of the pulsation between respective electrodes at other measurement electrodes using the electrodes at both ends as stimulation electrodes, enabling measurements of temporal fluctuation of transmission rate or transmission time between the electrodes. As for the fluctuation, the STV as shown in Equation 3 in FIG. 24(c), for example, can be used for quantification. Here, Delayn and Delayn+1 (FIG. 65) can substitute for Vn and Vn+1. For transmission, when velocity is used, respective velocities can substitute for Delayn and Delayn+1. […] Thus, the transmission time will be measured as an extremely shorter transmission time than a transmission delay measured normally between adjacent electrodes. […]

cardiomyocyte network [2] = experiment: Simultaneous measurement of extracellular potential (FP) and contractile force (optical imaging) in a cardiomyocyte network; format: cell-based
Source text: FIG. 43 is a schematic diagram showing an example of a system configuration of the present invention to simultaneously measure the mechanical properties and electrical properties of cardiomyocytes. The present system includes (1) a cellular network chip that can be used for culturing a cell population, includes a plurality of micro-electrodes disposed on a substrate and can be used for acquiring cellular potential data of a small area of the population; (2) a chip mounter for mounting the chip and joining electrically with cell-stimulating and/or cellular potential measuring system; (3) an environmental control vessel which can be used to control the environment such as temperature, humidity, oxygen concentration and carbon dioxide concentration of the cell population being cultured; (4) a micro multi-electrode potential measurement system that can give stimulation to a specific cell of a cardiomyocyte population, and allows simultaneous continuous measurements of cellular potentials of various small areas in the cell population; (5) one or more position-coordinate probe microparticles configured to measure changes in shape of myocardial cells and allow easy identification of cardiomyocytes using a plastic, polymer, glass or metal microparticles such as polystyrene microparticles, glass microparticles or gold microparticles of sizes from at minimum about 0.1, 0.2 μm, 0.3 μm, 0.4 μm, 0.5 μm, 0.6 μm, 0.7 μm, or preferably about 0.8 μm, more preferably about 0.9 μm, or most preferably about 1 μm to at most about 500 μm, 400 μm, 300 μm, preferably about 200 μm, more preferably about 100 μm or most preferably about 50 μm, wherein the particles are disposed in the cell population by mixing them on the surface of the cardiomyocyte population in the cell network chip or in the cell population and culturing them; (6) an optical image capturing system for optically measuring the microparticles, wherein the system includes a light source, an optical microscope and an image-capturing camera to capture the images of the microparticles; and (7) a computer system for image analysis, cellular potential analysis, stimulus control and/or integrated data acquisition, wherein the system is capable of measurements of cellular potential and analysis of waveforms of the potential, measurements of cell displacements by image analysis and feedback stimulation based on the analysis results. In the measurements using the device system, as for the stimulus to cause depolarization of the myocardial cells, the stimulus can be provided by selecting mainly from three means, i.e., (A) measurements using conduction of autonomous pulsation of the cardiomyocyte population, (B) measurements of conduction by providing a forced electrical stimulation from outside to a specific cell in the cardiomyocyte population and (C) measurements of conduction by providing a feed-back stimulus at a specific timing to meet the relationship of the delay time and the value of the cellular potential based on the cell voltage measured data to the specific cells in the cardiomyocyte population.
FIG. 44 is an example of a data acquisition monitor screen showing an example of data obtained from an example of a system configuration of the present invention to simultaneously measure the mechanical properties and the electrical properties of cardiomyocytes. In a setting of this example, a large number of polystyrene microparticles are placed on the surface of the cardiomyocyte population, a probe-particle displacement-observation window for five of the polystyrene microparticles selected as probes is set, and the center of gravity of the window moves with the movement of the microparticles in the window, thereby displacement of the particular probe microparticles can be measured continuously as a change in vector time in the directions of the X-axis and Y-axis. […]

Structure (SMILES) | fluctuation of FPD (STVFPD) (cardiomyocyte network [1]; FIG. 66e) | FPD (as indicator of toxicity) (cardiomyocyte network [1]; FIG. 66d) | fluctuation of time required for transmission (cardiomyocyte network [1]; concentration over 1 μM) | transmission rate between adjacent electrodes (relative to no drug) (cardiomyocyte network [1]; concentration over 1 μM) | angle fluctuation against a decrease in contractile force (cardiomyocyte network [2]; 10 nM) | angle fluctuation (contraction direction) (cardiomyocyte network [2]; 100 nM) | contractile forces (time variation) (cardiomyocyte network [2]; 100 nM) | electrical firing of excitatory conduction of cells (cardiomyocyte network [2]; 100 nM) | electrophysiological excitation (cardiomyocyte network [2]; 1000 nM) | mechanical contraction (cardiomyocyte network [2]; 1000 nM)
CC(C)(C)c1ccc(C(O)CCCN2CCC(C(O)(c3ccccc3)c3ccccc3)CC2)cc1 (stereo not shown) [terfenadine] | barely recognizable | is not seen | increases | suddenly decreased | – | – | – | – | – | –
COc1ccc(CCN(C)CCCC(C#N)(c2ccc(OC)c(OC)c2)C(C)C)cc1OC (stereo not shown) [verapamil] | – | – | – | – | barely increases | rapid fluctuation of contractile direction in the angular direction | disappear rapidly | is maintained | does not occur | does not occur
